From US11091476B2, “Protein kinase inhibitors, preparation method and medical use thereof” (Gan & Lee Pharmaceuticals, priority 2015, dated 2021)

What was measured:
Format in all cases: biochemical
CDK6/CyclinD3 = CDK6/CyclinD3 (Homo sapiens (Human), UniProt Q00534); assay: CDK kinase inhibitory activity, ADP-Glo Kinase Assay, CDK6/CyclinD3; settings: for CDK1/CDK6 / CDK9/CDK6: ratio of IC50s; for CDK1/CDK6: selectivity for CDK6 over CDK1; for CDK9/CDK6: selectivity for CDK6 over CDK9
Protocol: (§1) Measurement of CDK kinase inhibitory activity of the compounds of this disclosure.
(§2) In vitro inhibitory effect of the compounds of the disclosure on CDK (CDK1, CDK4 and CDK6) kinase activity was tested by the following method.
(§3) 1.1 Instrument and Kit Information
(§4) 1.2 Experimental Preparation • 1.2.1 Preparation of Kinase Reaction Buffer I: The 5×Reaction Buffer A (Promega; V307A-C) provided in the kit was mixed and diluted with MILLI-Q® H2O and 0.1 M DTT (dithiothreitol) to give 4× kinase buffer, and then MILLI-Q® H2O was further added to finally formulate the solution into 1× Kinase buffer.
(§5) 1 μl of 10 mM standard substance stock solution was taken and added to 9 μl of kinase reaction buffer I and mixed well; then 90 μl of kinase reaction buffer I was added and mixed well; then 100 μl of kinase reaction buffer I was added and mixed well. The final concentration was 50 μM. • b. 40 μl of kinase reaction buffer II was added into B2 to B10 of a 96-well plate, and 50 μl of the above solution was added into B1; • c. 10 μl of solution was taken from well B1, added into B2, and mixed well; then 10 μl of the resulting solution was taken and added into B3, and dilution was carried out in sequence to B9, so as to obtain control solutions that are diluted by 5-fold sequentially. • (2) Preparation of test compound solution: • a. Test compound solutions at a certain concentration were taken, respectively, diluted with kinase reaction buffer I to a final concentration of 50 μM compound solution; • b. 40 μl of kinase reaction buffer II was added into H2 to H10 of the 96-well plate; and 50 μl of the above solution was added into H1; • c. 10 μl of solution was taken from well H1, added into H2, and mixed well; then 10 μl of the resulting solution was taken and added into H3, and dilution was carried out in sequence to H9, so as to obtain test compound solutions that are diluted by 5-fold sequentially. • 1.2.4 Preparation of a mixed solution of reaction substrate and ATP: • a. Preparation of ATP solution: • 200 μl of 0.1 mM ATP solution: 2 μl of 10 mM ATP was added to 198 μl of kinase reaction buffer I; • 300 μl of 50 μM ATP solution: 150 μl of kinase reaction buffer I was added to 150 μl of the above 0.1 mM ATP solution; • b. Preparation of 300 μl of reaction substrate solution: • 150 μl 1 μg/μl reaction substrate stock solution was added to 150 μl kinase reaction buffer I, and mixed well; • c. The above a/b solutions were mixed to obtain mixed solutions, respectively.
(§6) 1.3 Experimental process: • 1.3.1: 2 μl of compound solutions of various concentrations were taken, added to a 384-well plate, and centrifuged 3 minutes; • 1.3.2: 4 μl of kinase solution was added to each well, centrifuged at 5000 rpm and 18° C. for 10 minutes, and shaken on a plate shaker for 10 minutes; • 1.3.3: 4 μl of mixed solution of substrate and ATP was added to each well, centrifuged at 5000 rpm and 18° C. for 10 minutes, and shaken on a plate shaker at 37° C. for 90 minutes; • 1.3.4: The 384-well plate was taken out, and allowed to stand to room temperature; • 1.3.5: 10 μl of ADP-GLO™ reagent was added to each well, centrifuged at 5000 rpm and 18° C. for 18 minutes, and shaken on a plate shaker at 25° C. for 40 minutes, and then the reaction was stopped; • 1.3.6: 20 μl of kinase detection reagent was added to each well, centrifuged at 5000 rpm and 18° C. for 10 minutes, and shaken on a plate shaker at 25° C. for 30 minutes; and • 1.3.7: M1000pro MICROPLATE READER was used to read […] values.
(§7) The inhibition rate of each compound at each concentration point was calculated by the formula as follows and curve fitting was performed by GraphPad Prism 5 software to obtain the IC50 value.

CDK1/CyclinA2 = CDK1/CyclinA2 (Homo sapiens (Human), UniProt P06493); assay: CDK kinase inhibitory activity, ADP-Glo Kinase Assay, CDK1/CyclinA2
Protocol: as §1, §2, §3, §4, §5, §6, §7

CDK9/CyclinD3 = CDK9/CyclinD3 (Homo sapiens (Human), UniProt P50750); assay: Kinase inhibitory activity, ADP-Glo Kinase Assay, CDK9/CyclinD3
Protocol: as §3, §4, §5, §6, §7

In the case of `CCN1CCN(Cc2ccc(Nc3ncc(F)c(-c4cc(F)c5c(c4)C(C)(CC)C(C)=N5)n3)nc2)CC1` (centres unmarked) [Example 5, 4-(3-ethyl-7-fluoro-2,3-dimethyl-3H-indol-5-yl)-N-(5-((4-ethylpiperazin-1-yl)methyl)pyridin-2-yl)-5-fluoropyrimidine-2-amino], the IC50 (CDK6/CyclinD3) is reported as 7.53 nM, the CDK1/CDK6 (CDK6/CyclinD3) is reported as 58.23 and the IC50 (CDK1/CyclinA2) is reported as 439 nM.
In the case of `CCN1CCN(Cc2ccc(Nc3ncc(F)c(-c4cc(F)c5c(c4)C(CC)(CC)C(C)=N5)n3)nc2)CC1` [Example 10], the IC50 (CDK9/CyclinD3) is reported as 27 nM, the IC50 (CDK6/CyclinD3) is reported as 47.1 nM and the CDK1/CDK6 (CDK6/CyclinD3) is reported as 9.25. It also gave a CDK9/CDK6 (CDK6/CyclinD3) of 0.57 and an IC50 (CDK1/CyclinA2) of 436 nM.
With `CC1=Nc2ccc(-c3nc(Nc4ccc(C5CCNCC5)cn4)ncc3F)cc2C12CCCC2` [Example 15, 5-fluoro-4-(2′-methylspiro[cyclopentane-1,3′-indol]-5′-yl)-N-(5-(piperidin-4-yl)pyridin-2-yl)pyrimidine-2-amino] the IC50 (CDK6/CyclinD3) was 4.31 nM, the CDK1/CDK6 (CDK6/CyclinD3) was 6.25 and the IC50 (CDK1/CyclinA2) was 26.9 nM.
Work on `CCC1(C)C(C)=Nc2c(F)cc(-c3nc(Nc4ccc(N5CCN(C)CC5)cn4)ncc3F)cc21` (centres unmarked) [Example 18, 4-(3-ethyl-7-fluoro-2,3-dimethyl-3H-indol-5-yl)-5-fluoro-N-(5-(4-methylpiperazin-1-yl)pyridin-2-yl)pyrimidine-2-amino] yielded an IC50 (CDK9/CyclinD3) of 1 nM, an IC50 (CDK6/CyclinD3) of 2.74 nM and a CDK1/CDK6 (CDK6/CyclinD3) of 69.29. The CDK9/CDK6 (CDK6/CyclinD3) was 0.36 and the IC50 (CDK1/CyclinA2) was 190 nM.
In the case of `CC1=Nc2c(F)cc(-c3nc(Nc4ccc(N5CCN(C)CC5)cn4)ncc3F)cc2C12CCCC2` [Example 20, 5-Fluoro-4-(7′-fluoro-2′-methylspiro[cyclopentane-1,3′-indol]-5′-yl)-N-(5-(4-methylpiperazin-1-yl)pyridin-2-yl)pyrimidine-2-amino], the IC50 (CDK9/CyclinD3) is reported as 0.24 nM, the IC50 (CDK6/CyclinD3) is reported as 87.6 nM and the CDK1/CDK6 (CDK6/CyclinD3) is reported as 16.49. It also gave a CDK9/CDK6 (CDK6/CyclinD3) of 0.003 and an IC50 (CDK1/CyclinA2) of 1440 nM.
Work on `CCN1CCC(c2ccc(Nc3ncc(F)c(-c4ccc5c(c4)C4(CCCC4)C(C)=N5)n3)nc2)CC1` [Example 21, N-(5-(1-ethylpiperidin-4-yl)pyridin-2-yl)-5-fluoro-4-(2′-methylspiro[cyclopentane-1,3′-indol]-5′-yl)pyrimidine-2-amino] yielded an IC50 (CDK6/CyclinD3) of 27.7 nM, a CDK1/CDK6 (CDK6/CyclinD3) of 4.89 and an IC50 (CDK1/CyclinA2) of 135 nM.
`CCN1CCN(c2ccc(Nc3ncc(F)c(-c4ccc5c(c4)C4(CCCC4)C(C)=N5)n3)nc2)CC1` [Example 22, N-(5-(4-ethylpiperazin-1-yl)pyridin-2-yl)-5-fluoro-4-(2′-methylspiro[cyclopentane-1,3′-indol]-5′-yl)pyrimidine-2-amino] gave an IC50 (CDK9/CyclinD3) of 0.5 nM, an IC50 (CDK6/CyclinD3) of 52.5 nM and a CDK1/CDK6 (CDK6/CyclinD3) of 17.43. The CDK9/CDK6 (CDK6/CyclinD3) was 0.009 and the IC50 (CDK1/CyclinA2) was 915 nM.
In the case of `CC1=Nc2ccc(-c3nc(Nc4ccc(C5CCN(C)CC5)cn4)ncc3F)cc2C12CCCC2` [Example 23], the IC50 (CDK6/CyclinD3) is reported as 4.53 nM, the CDK1/CDK6 (CDK6/CyclinD3) is reported as 11.10 and the IC50 (CDK1/CyclinA2) is reported as 50.3 nM.
`CC1=Nc2ccc(-c3nc(Nc4ccc(N5CCN(C)CC5)cn4)ncc3F)cc2C12CCCC2` [Example 25, 5-Fluoro-N-(5-(4-methylpiperazin-1-yl)pyridin-2-yl)-4-(2′-methylspiro [cyclopentane-1,3′-indol]-5′-yl)pyrimidine-2-amino] showed an IC50 (CDK9/CyclinD3) of 1.09 nM, an IC50 (CDK6/CyclinD3) of 8.78 nM and a CDK1/CDK6 (CDK6/CyclinD3) of 47.51. It also gave a CDK9/CDK6 (CDK6/CyclinD3) of 0.12 and an IC50 (CDK1/CyclinA2) of 417 nM.
For `CCN1CCC(c2ccc(Nc3ncc(F)c(-c4cc(F)c5c(c4)C(C)(CC)C(C)=N5)n3)nc2)CC1` (centres unmarked) [Example 26, 4-(3-ethyl-7-fluoro-2,3-dimethyl-3H-indol-5-yl)-N-(5-(1-ethylpiperidin-4-yl)pyridin-2-yl)-5-fluoropyrimidine-2-amino], the IC50 (CDK9/CyclinD3) was 11 nM, the IC50 (CDK6/CyclinD3) was 12.5 nM and the CDK1/CDK6 (CDK6/CyclinD3) was 17.27. It also gave a CDK9/CDK6 (CDK6/CyclinD3) of 0.88.
`CCC1(CC)C(C)=Nc2c(F)cc(-c3nc(Nc4ccc(N5CCNCC5)cn4)ncc3F)cc21` [Example 29, 4-(3,3-diethyl-7-fluoro-2-methyl-3H-indol-5-yl)-5-fluoro-N-(5-(piperazin-4-yl)pyridin-2-yl)pyrimidine-2-amino] gave an IC50 (CDK6/CyclinD3) of 3.15 nM, a CDK1/CDK6 (CDK6/CyclinD3) of 26.20 and an IC50 (CDK1/CyclinA2) of 82.4 nM.
For `CCC1(C)C(C)=Nc2ccc(-c3nc(Nc4ccc(C5CCN(C)CC5)cn4)ncc3F)cc21` (centres unmarked) [Example 35, 4-(3-ethyl-2,3-dimethyl-3H-indol-5-yl)-5-fluoro-N-(5-(1-methylpiperidin-4-yl)-pyridin-2-yl)pyrimidine-2-amino], the IC50 (CDK6/CyclinD3) was 8.74 nM, the CDK1/CDK6 (CDK6/CyclinD3) was 7.33 and the IC50 (CDK1/CyclinA2) was 64 nM.
`CC1=Nc2ccc(-c3nc(Nc4ccc(C5CCN(C)CC5)cn4)ncc3F)cc2C1(C)C` [Example 37, 5-Fluoro-N-(5-(1-methylpiperidin-4-yl)pyridin-2-yl)-4-(2,3,3-trimethyl-3H-indol-5-yl)pyrimidine-2-amino] gave an IC50 (CDK6/CyclinD3) of 22.9 nM, a CDK1/CDK6 (CDK6/CyclinD3) of 3.22 and an IC50 (CDK1/CyclinA2) of 73.7 nM.
In the case of `CCC1(CC)C(C)=Nc2c(F)cc(-c3nc(Nc4ccc(C5CCN(C)CC5)cn4)ncc3F)cc21` [Example 38, 4-(3,3-diethyl-7-fluoro-2-methyl-3H-indol-5-yl)-5-fluoro-N-(5-(1-methylpiperidin-4-yl)pyridin-2-yl)pyrimidine-2-amino], the IC50 (CDK6/CyclinD3) is reported as 0.2 nM, the CDK1/CDK6 (CDK6/CyclinD3) is reported as 99.15 and the IC50 (CDK1/CyclinA2) is reported as 19.8 nM.
`CCC1(C)C(C)=Nc2c(F)cc(-c3nc(Nc4ccc5c(n4)CCN(C(=O)CO)C5)ncc3F)cc21` (centres unmarked) [Example 39, 1-(2-((4-(3-Ethyl-7-fluoro-2,3-dimethyl-3H-indol-5-yl)-5-fluoropyrimidin-2-yl)amino)-7,8-dihydro-1,6-naphthyridine-6 (5H)-yl)-2-hydroxyacetamide] showed an IC50 (CDK6/CyclinD3) of 5.65 nM, a CDK1/CDK6 (CDK6/CyclinD3) of 6.82 and an IC50 (CDK1/CyclinA2) of 38.5 nM.
Work on `CC1=Nc2c(F)cc(-c3nc(Nc4ccc5c(n4)CCN(C(=O)CO)C5)ncc3F)cc2C12CCCC2` [Example 40, 1-(2-((5-fluoro-4-(7′-fluoro-2′-methylspiro[cyclopentane-1,3′-indol]-5′-yl)pyrimidin-2-yl)amino)-7,8-dihydro-1,6-naphthyridine-6 (5H)-yl)-2-hydroxyacetamide] yielded an IC50 (CDK6/CyclinD3) of 25 nM, a CDK1/CDK6 (CDK6/CyclinD3) of 6.47 and an IC50 (CDK1/CyclinA2) of 162 nM.
`CCC1(C)C(C)=Nc2c(F)cc(-c3nc(Nc4ccc(CN5CCN(C)CC5)cn4)ncc3F)cc21` (centres unmarked) [Example 42, 4-(3-ethyl-7-fluoro-2,3-dimethyl-3H-indol-5-yl)-5-fluoro-N-(5-((4-methylpiperazin-1-yl)methyl)pyridin-2-yl)pyrimidine-2-amino] was tested, and the IC50 (CDK6/CyclinD3) was 2.33 nM.
Work on `CC1=Nc2c(F)cc(-c3nc(Nc4ccc(CN5CCN(C)CC5)cn4)ncc3F)cc2C12CCCC2` [Example 43, 5-Fluoro-4-(7′-fluoro-2′-methylspiro[cyclopentane-1,3′-indol]-5′-yl)-N-(5-((4-methylpiperazin-1-yl)methyl)pyridin-2-yl)pyrimidine-2-amino] yielded an IC50 (CDK6/CyclinD3) of 0.9 nM, a CDK1/CDK6 (CDK6/CyclinD3) of 298.78 and an IC50 (CDK1/CyclinA2) of 269 nM.
`CC1=Nc2c(F)cc(-c3nc(Nc4ccc(C5CCN(C)CC5)c(C)n4)ncc3F)cc2C12CCCC2` [Example 44, N-(5-(1-methylpiperidin-4-yl)-(6-methylpyridin)-2-yl)-5-fluoro-4-(7′-fluoro-2′-methylspiro[cyclopentane-1,3′-indol]-5′-yl)pyrimidine-2-amino] showed an IC50 (CDK6/CyclinD3) of 37.5 nM.
`CC1=Nc2c(F)cc(-c3nc(Nc4ccc(OC5CCN(C)CC5)cn4)ncc3F)cc2C12CCCC2` [Example 45, N-(5-((1-methylpiperidin-4-yl)oxy)-pyridin-2-yl)-5-fluoro-4-(7′-fluoro-2′-methylspiro[cyclopentane-1,3′-indol]-5′-yl)pyrimidine-2-amino] showed an IC50 (CDK6/CyclinD3) of 43.9 nM.
